The source of these data is patent US9625466B2, “Signal amplification methods for the imaging of protein synthesis and neurotransmitter transport” (CORNELL UNIVERSITY, priority 2011, dated 2017).

Assay [1] addresses T1, ternary complex (Escherichia coli, UniProt P0CE48).
T1 construct: 6-His tag followed by TEV protease site (N); made in house; host or cells: E. coli (bacterial expression vector pPROEX-Ht-b)
The assay can be described thus: Equilibrium titration of nucleotide into Cy3-labeled Phe-tRNAPhe with saturating EF-Tu. The assay is classed as binding, E. coli. Conditions: for RF Increase (%): Cy3 relative fluorescence increase at saturation, nucleotide titrated. The source says:
Initial experiments focused on the molecular determinants of ternary complex formation in vitro using E. coli EF-Tu and tRNA^Phe. […] Depending on the solution conditions of the experiment, the formation of ternary complex can be detected as either a rise or fall in fluorescence intensity depending strongly on the solution conditions of the Cy3 fluorophore linked to tRNA^Phe. Other tRNA species (e.g., Cy3-labeled tRNA^Lys) undergo similar changes in fluorescence intensity.
Fluorescence experiments were performed using a Photon Technology International fluorescence meter with a 550 nm high pass filter on the emission side. All samples were analyzed in a 3 mL quartz cuvette, with a stir bar, maintained at 23° C. […] Fluorescence intensity was measured by exciting Cy3 labeled tRNA^Phe with 532 nm light and recording emission intensities at 565 nm. The sample was allowed to mix for 1 minute after each subsequent addition of reagent before data acquisition.
[formula] (Abrahamson 1985). Values of Kd were obtained by performing a nonlinear least squares fit of the data from fluorescence experiments to equation 5 in Matlab (R2011a). The best-fit values are reported with asymptotic 95% confidence intervals.
To assess the affinity and nature of GTP's interactions with ternary complex, analogous titration experiments were carried out in which GTP was added to a solution of 5 nM Phe-tRNA^Phe (Cy3-acp3U47) in the presence of saturating concentrations of EF-Tu (40 times IQ). […] The non-hydrolysable analogs each saturated at a relative fluorescence value well below 30%, illustrating EF-Tu's sensitivity to the position of the gamma phosphate.

Another assay has as its target EF-Tu (Escherichia coli, UniProt P0CE47). Conditions: cited from earlier work.
For assay [2], the target named is T1, ternary complex. Put plainly: Functional drug assay: dissociation of pre-formed fluorescent ternary complex. Format: biochemical, E. coli. Conditions: for kapp,2 apparent rate of ternary complex dissociation: compound added to pre-formed ternary complex (400 nM EF-Tu/EF-Ts, 5 nM Cy3 Phe-tRNAPhe, 10 μM GTP), GDP 100 μM. As for the experimental part:
After ternary complex was formed, drug was added to a final concentration of 1 μM. Decay curves were fit using non-linear least squares method as previously mentioned.
To test this hypothesis, ternary complex was formed at low, saturating concentrations of GTP (10 μM). […] To the formed complex, 100 μM GDP was then added and the rate of ternary complex dissociation was followed as a function of time.
To illustrate the dynamic equilibrium that exists between ternary complex and its constituents, EF-Tu-targeting drugs were delivered to pre-formed ternary complex in the same manner as GDP described above.

Assay [3] relates to Phe-tRNA^Phe.
The test system of assay [4] is Phe-tRNA^Phe. The note with it: for RF Increase (%): Cy3 relative fluorescence increase on ternary complex formation, EF-Tu titrated.
In assay [5] the test system is Phe-tRNA^Phe. The note with it: 4° C., pH 7.4; cited from earlier work.
[6] abbreviates: 5 nM Phe-tRNAPhe (Cy3-acp3U47), saturating EF-Tu (400 nM EF-Tu/EF-Ts), read-out: Kd (apparent affinity of nucleotide for ternary complex).

Values joined by “and” are separate entries in the source; they are usually repeats but may differ in a detail not shown here. Equal values may be shown once. Read-outs that look alike come from different tables or passages of the source. Marks after values point to notes of the source that are not given here.

As for `Nc1nc2c(ncn2[C@@H]2O[C@H](COP(=O)(O)OP(=O)(O)NP(=O)(O)O)[C@@H](O)[C@H]2O)c(=O)[nH]1` [GDPNP, guanylyl-imino-diphosphate], at ternary complex [1] (setting [6]), the Kd came out at 9270 nM. Also, the “RF Increase (%)” value at ternary complex [1] was determined as 7.3%.

As to `Nc1nc2c(ncn2[C@@H]2O[C@H](COP(=O)(O)OP(=O)(O)O)[C@@H](O)[C@H]2O)c(=O)[nH]1` [GDP], the “affinity for GDP relative to GTP” value at EF-Tu (EF-Tu) is given as 40 fold. Moreover, at EF-Tu (Gromadski 2002), the “dissociation rate of GDP from EF-Tu•GDP•EF-Ts” value is 125 s⁻¹. Moreover, on ternary complex [2], the “kapp,2 apparent rate of ternary complex dissociation” value is 0.3 s⁻¹ and 0.30 s⁻¹.

On to `Nc1nc2c(ncn2[C@@H]2O[C@H](COP(=O)(O)OP(=O)(O)OP(O)(O)=S)[C@@H](O)[C@H]2O)c(=O)[nH]1` [GDPγS, guanosine 5′[γ-thio]triphosphate], for which, on ternary complex [1], the Kd worked out at 3670 nM and the “RF Increase (%)” value was 5.5%.

For the compound `Nc1nc2c(ncn2[C@@H]2O[C@H](COP(=O)(O)OP(=O)(O)OP(=O)(O)O)[C@@H](O)[C@H]2O)c(=O)[nH]1` [GTP, guanosine nucleotide triphosphate], the Kd on ternary complex [1] (setting [6]) was 696 nM; on ternary complex [1] (Example 2, saturating EF-Tu (~300 nM), read-out: affinity of GTP in the formation of ternary complex), around 200 nM. The “RF Increase (%)” value on ternary complex [1] was determined as 30%. Further, the “kon of GTP for the complex (kon=koff/KD)” value at ternary complex [1] (model, from koff 0.3 s^−1 and KD) was around 1e+06 M⁻¹ s⁻¹.

On to `C=C(NC(=O)C(=C)NC(=O)c1csc(C2=N[C@@H]3c4csc(n4)[C@H]4NC(=O)c5csc(n5)[C@H]([C@](C)(O)[C@@H](C)O)NC(=O)[C@H]5CSC(=N5)/C(=C/C)NC(=O)[C@H]([C@@H](C)O)NC(=O)c5csc(n5)[C@]3(CC2)NC(=O)[C@H](C)NC(=O)C(=C)NC(=O)[C@H](C)NC(=O)[C@H]([C@@H](C)CC)N[C@@H]2C=Cc3c([C@H](C)O)cc(nc3[C@H]2O)C(=O)O[C@@H]4C)n1)C(N)=O` [Thiostrepton], for which the “kapp,2 apparent rate of ternary complex dissociation” value at ternary complex [2] is 0 s⁻¹. Also, the “disruption of the ternary complex” value on ternary complex [2] (thiostrepton added to pre-formed ternary complex (10 μM per FIG. 17)) is “did not lead to disruption of the ternary complex”.

For “EF-Tu (GTP): elongation factor Tu from E. coli, GTP-bound form, added as EF-Tu/EF-Ts complex”, the association constant kon in the assay on Phe-tRNA^Phe [3] (EF-Tu and GTP (10 μM) added to 5 nM Cy3-labeled Phe-tRNAPhe) came out at 1.4e+06 M⁻¹ s⁻¹. The dissociation rate koff in the assay on Phe-tRNA^Phe [3] (fit of triplicate time course to equation 7) was 0.08 s⁻¹. Moreover, the entries for the “RF Increase (%)” value in the assay on Phe-tRNA^Phe [4] and in the assay with Phe-tRNA^Phe [4] (listed as EF-Tu) were 30% and “approximately 30%”, respectively. Besides, the Kd on Phe-tRNA^Phe [4] (read-out: Kd (apparent dissociation constant between EF-Tu•GTP and Phe-tRNAPhe), 5 nM Phe-tRNAPhe (Cy3-acp3U47), 10 μM GTP, 23° C., ± 95% CI) was 12.7 ± 1.1 nM; on Phe-tRNA^Phe [4] (read-out: Kd (apparent dissociation constant between EF-Tu•GTP and Phe-tRNAPhe), 5 nM Phe-tRNAPhe (Cy3-acp3U47), 10 μM GTP, 23° C., ± 95% CI, listed as EF-Tu•GTP), 12.6 nM; at Phe-tRNA^Phe [4] (read-out: Kd of EF-Tu's interaction with Phe-tRNAPhe, Example 2, saturating GTP (>10 μM)), at most 15 nM. Further, in the assay with Phe-tRNA^Phe [5], the “rate of association determined previously” value is 1.5e+06 M⁻¹ s⁻¹.

For the compound Kirromycin, the “reduction of relative fluorescence” value on ternary complex [2] (1 μM added to pre-formed ternary complex) is around 20%. In addition, the “kapp,2 rate of GDP mediated dissociation in the presence of kirromycin” value on ternary complex [2] (1 μM kirromycin, then GDP) was 0.02* s^−1. On ternary complex [2] (1 μM kirromycin, then saturating GDP), the “dissociation of ternary complex by saturating GDP with kirromycin present” value is reported as “did not dissociate ternary complex in the time frame observed”.
